Laboratory results from US10413529B2, “Methods of inhibiting cataracts and presbyopia” (UNIVERSITY OF MASSACHUSETTS, priority 2013, dated 2019).
Values belong to the compound of their own block, whether it stands above or below them.

Experiments:
γD-crystallin = biological target: T1, γD-crystallin (Homo sapiens, UniProt P07320); experiment: Dynamic light scattering (DLS) of γD-crystallin, hydrodynamic radius of monomer and aggregate; format: biochemical; conditions: for Rhf / Rhs: γD; for Rhf: fast mode; for Rh: γD modified with the agent
T1 construct: 6xHis (N); made in house; host or cells: M15pRep E. coli (pQe1 plasmid from King Labs, MIT)
T1 sequence (P07320 1-174): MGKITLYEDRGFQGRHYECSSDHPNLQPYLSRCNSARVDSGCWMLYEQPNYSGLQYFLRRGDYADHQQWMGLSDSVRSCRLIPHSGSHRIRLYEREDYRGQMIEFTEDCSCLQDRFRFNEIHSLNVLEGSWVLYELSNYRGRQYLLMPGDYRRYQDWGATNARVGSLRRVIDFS
Procedure: (§1) The scattering wave vector is defined as q=4πn sin (θ/2)/λ, where θ is the scattering angle, and λ=514.5, the wavelength of the argon laser in vacuum, and n is 1.33, the refractive index of water. The temperature of the sample was held at constant temperature of 4 to 37±0.1° C. by a circulating water bath. The correlation function was analyzed using CONTIN analysis [NT] times for the correlation functions at measured angles. […] The delay times (τ) were converted to Γ and graphed versus q^2. The slope of the fitted line is the diffusion coefficient (D). […] All solutions were filtered with 0.22 μm hydrophobic PVDF membranes (Fisher Scientific) into 10 mm diameter borosilicate glass tubes and sealed. Solutions were allowed to equilibrate for thirty minutes prior to measuring light scattering. […] The pH and salt concentration were adjusted via overnight dialysis at 4° C. and their final concentration adjusted to 1.0 g/L. […] The scattering wave vector is defined as q=4πn sin (θ/2)/λ, where θ is the scattering angle, and λ=514.5, the wavelength of the argon laser in vacuum, and n is 1.33, the refractive index of water. The temperature of the sample was held at constant temperature of 4 to 37±0.1° C. by a circulating water bath. The correlation function was analyzed using CONTIN analysis [NT] times for the correlation functions at measured angles. […] The delay times (τ) were converted to Γ and graphed versus q^2. The slope of the fitted line is the diffusion coefficient (D). […] All solutions were filtered with 0.22 μm hydrophobic PVDF membranes (Fisher Scientific) into 10 mm diameter borosilicate glass tubes and sealed. Solutions were allowed to equilibrate for thirty minutes prior to measuring light scattering.

γ-crystallin [1] = experiment: DLS, aggregation of γ-crystallin (stated for γD and γS together); format: biochemical; conditions: for aggregation of γ-crystallin modified with the agent (DLS): dilute solution, 22° and 37° C.; for effect on the large γ-crystallin aggregate: α-crystallin mixed with γD- or γS-crystallin, molar ratio 3:1, one hour at 4° C.
Procedure: (§2) Scattering intensity was measured at angles between 30° and 90° at 5° intervals, corresponding to a scattering wave vector (q) range between 8.41×10^6 and 2.30×10^7 m^−1. The scattering wave vector is defined as q=4πn sin (θ/2)/λ, where θ is the scattering angle, and λ=514.5, the wavelength of the argon laser in vacuum, and n is 1.33, the refractive index of water. The temperature of the sample was held at constant temperature of 4 to 37±0.1° C. by a circulating water bath.
(§3) The correlation function was analyzed using CONTIN analysis to calculate lag times for the correlation functions at measured angles. The peaks represent the diffusive mode of the proteins. The delay times (τ) were converted to Γ and graphed versus q^2. The slope of the fitted line is the diffusion coefficient (D). The lines are fitted such that the intercept is zero because a non-zero value of q=0 is unphysical. The Γ versus q^2 plots were linear with r^2 values of 0.95 or greater.
(§4) All solutions were filtered with 0.22 μm hydrophobic PVDF membranes (Fisher Scientific) into 10 mm diameter borosilicate glass tubes and sealed. Solutions were allowed to equilibrate for thirty minutes prior to measuring light scattering.
γ-crystallins were subjected to a variety of experimental conditions, including a range of pHs (5, 6, 7, 8, 9, 10, 11), concentrations of KCl (100 mM, 150 mM, 300 mM, 500 mM, 1000 mM) and temperature (4.5° C., 22° C., 37° C.). The pH and salt concentration were adjusted via overnight dialysis at 4° C. and their final concentration adjusted to 1.0 g/L.
It had been hypothesized that disulfide bonds might mediate the observed γ-crystallin aggregates. The DLS of the γ-crystallin proteins was also measured in 5 mM DTT, and in the presence of 1.0 g/L α-crystallin. […] Thus, this hypothesis was incorrect.
Further, the synthesized α-crystallin proteins were mixed with γ-crystallin proteins to determine if the chaperoning ability of α-crystallin disrupts the γ-crystallin aggregates. The α-A and α-B crystallins were each individually mixed with γD- or γS-crystallin in a molar ratio of 3:1, respectively, mimicking the ratio found in the human eye lens. All solutions were allowed to equilibrate for an hour at 4° C.

γS-crystallin = biological target: T2, γS-crystallin (Homo sapiens, UniProt P22914); experiment: Dynamic light scattering (DLS) of γS-crystallin, hydrodynamic radius of monomer and aggregate; format: biochemical; conditions: for Rhf / Rhs: γS; for Rhf: fast mode; for Rh: γS modified with the agent
T2 construct: 6xHis (N); made in house; host or cells: M15pRep E. coli (pQe1 plasmid from King Labs, MIT)
T2 sequence (P22914 1-178): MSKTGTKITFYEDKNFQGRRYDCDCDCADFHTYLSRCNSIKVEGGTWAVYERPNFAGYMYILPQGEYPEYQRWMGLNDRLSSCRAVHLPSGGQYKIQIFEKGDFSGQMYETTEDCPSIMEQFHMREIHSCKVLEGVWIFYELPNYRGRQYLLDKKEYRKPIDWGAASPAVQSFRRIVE
Procedure: as §1

γ-crystallin [2] = experiment: Circular dichroism of modified γ-crystallin (secondary structure); format: biochemical; conditions: 0.5 mg/mL, 22° C., versus native protein
Procedure: Crystallin samples were dialyzed overnight into 10 mM Na2HPO4/NaH2PO4 buffer pH 6.8 and measured at a concentration of 0.5 mg/mL. CD spectra were measured on a Jasco J715 spectropolarimeter at 22° C. using a quartz cell of 1 mm path length.

[3] = DLS of individual α-crystallin solutions (size in dilute solution); format: physicochemical; conditions: individual protein solution
Procedure: as §2, §3, §4
Individual solutions of α-A, α-B, γD- and γ-S crystallin proteins were investigated to understand the size scale and how the proteins behave in dilute solution. (Table 1) Temperature had little effect on protein size in solution as measured by DLS.

[4] = slow mode (aggregate), 100 mM NaCl
[5] = slow mode (aggregate), 150 mM NaCl
[6] = slow mode (aggregate), 300 mM NaCl
[7] = fast mode (monomer, first Rh column), 22° C.
[8] = α-crystallin additive, molar ratio 3:1, one hour at 4° C.
[9] = slow mode, α-crystallin additive, molar ratio 3:1, one hour at 4° C.

Compound: [Cl-].[K+] [KCl]
aggregate formation (γ-crystallin [1]; KCl concentrations 400 to 1000 mM): aggregate formation was effectively inhibited
reduction in the size of γ-crystallin aggregates (γ-crystallin [1]; KCl concentrations of less than 300 nM (so in the source)): did not provide a reduction in the size of γ-crystallin aggregates
reduction of γ-crystallin aggregates (γ-crystallin [1]; salt concentrations over 300 mm KCl (so in the source)): did reduce γ-crystallin aggregates to individual protein particles

Compound: [Cl-].[Na+] [NaCl]
Rhf (γD-crystallin; 100 mM NaCl): 2.8 nm
Rhf (γD-crystallin; 150 mM NaCl): 2.8 nm
Rhf (γD-crystallin; 300 mM NaCl): 2.6 nm
Rhf (γD-crystallin; 400 mM NaCl): 2.7 nm
Rhf (γD-crystallin; 500 mM NaCl): 2.8 nm
Rhf (γD-crystallin; 1000 mM NaCl): 2.5 nm
Rhs (γD-crystallin; [4]): 108 nm
Rhs (γD-crystallin; [5]): 104 nm
Rhs (γD-crystallin; [6]): 91 nm
Rhf (γS-crystallin; 100 mM NaCl): 2.7 nm
Rhf (γS-crystallin; 150 mM NaCl): 2.7 nm
Rhf (γS-crystallin; 300 mM NaCl): 2.9 nm
Rhf (γS-crystallin; 400 mM NaCl): 2.6 nm
Rhf (γS-crystallin; 500 mM NaCl): 2.5 nm
Rhf (γS-crystallin; 1000 mM NaCl): 2.6 nm
Rhs (γS-crystallin; [4]): 104 nm
Rhs (γS-crystallin; [5]): 102 nm
Rhs (γS-crystallin; [6]): 100 nm

Compound: Biotin
Rh (γD-crystallin; fast mode (monomer), 37° C.): 2.7 nm
Rh (γD-crystallin; [7]): 2.8 nm
Rh (γD-crystallin; slow mode (aggregate), 22° C.): 150 nm
Rh (γD-crystallin; slow mode (aggregate), 37° C.): 170 nm
secondary structure of modified γ-crystallin (CD spectra) (γ-crystallin [2]): showed a sizeable shift upwards as compared with the native structure of the protein
aggregation of γ-crystallin modified with the agent (DLS) (γ-crystallin [1]): resulted in aggregation
Rh (γS-crystallin; fast mode (monomer), 37° C.): 2.8 nm
Rh (γS-crystallin; [7]): 2.6 nm
Rh (γS-crystallin; slow mode (aggregate), 22° C.): 180 nm
Rh (γS-crystallin; slow mode (aggregate), 37° C.): 210 nm

Compound: αA: αA-crystallin, heat shock protein and molecular chaperone, 19.9 kDa
effect on the large γ-crystallin aggregate (γ-crystallin [1]): the large γ-crystallin aggregate of several hundred nanometers disappeared
Rh ([3]; 4°): 12 nm
Rh ([3]; 22°): 12 nm
Rh ([3]; 37°): 13 nm

Now from value to compound, other results behind:

Rhf (γD-crystallin; additive 5 mM DTT): 2.6 nm
Rhs (γD-crystallin; slow mode, additive 5 mM DTT): 108 nm
Rhf (γS-crystallin; additive 5 mM DTT): 3 nm
Rhs (γS-crystallin; slow mode, additive 5 mM DTT): 102 nm
Compound: O[C@@H](CS)[C@@H](O)CS [DTT, reference compound]
effect on the size of the γ-crystallin aggregates (γ-crystallin [1]; 5 mM DTT): had no effect on the size of the γ-crystallin aggregates

Rh (γD-crystallin; fast mode (monomer), 37° C.): 2.6 nm
Rh (γD-crystallin; [7]): 2.5 nm
Rh (γD-crystallin; slow mode (aggregate), 22° C.): 82.5 nm
Rh (γD-crystallin; slow mode (aggregate), 37° C.): 85 nm
Rh (γS-crystallin; fast mode (monomer), 37° C.): 2.5 nm
Rh (γS-crystallin; [7]): 2.5 nm
Rh (γS-crystallin; slow mode (aggregate), 22° C.): 92.5 nm
Rh (γS-crystallin; slow mode (aggregate), 37° C.): 90 nm
Compound: CC(=O)O.O=C1CC(S(=O)(=O)O)C(=O)N1O (stereo not shown) [SA, sulfo-N-hydroxysuccinimide acetate]
secondary structure of modified γ-crystallin (CD spectra) (γ-crystallin [2]): smaller well around 220 nm as compared to the native
aggregation of γ-crystallin modified with the agent (DLS) (γ-crystallin [1]): did not prevent aggregation

Rh (γD-crystallin; fast mode (monomer), 37° C.): 2.9 nm
Rh (γD-crystallin; [7]): 2.8 nm
Rh (γS-crystallin; fast mode (monomer), 37° C.): 2.9 nm
Rh (γS-crystallin; [7]): 2.9 nm
Compound: PEG4
secondary structure of modified γ-crystallin (CD spectra) (γ-crystallin [2]): did not significantly affect the secondary structures
aggregation of γ-crystallin modified with the agent (DLS) (γ-crystallin [1]): showed no aggregation

Rhf (γD-crystallin; [8]): 3.2 nm
Rhs (γD-crystallin; [9]): 17 nm
Rhf (γS-crystallin; [8]): 3 nm
Rhs (γS-crystallin; [9]): 19 nm
Compound: αB: αB-crystallin, heat shock protein and molecular chaperone, 20.16 kDa
effect on the large γ-crystallin aggregate (γ-crystallin [1]): the large γ-crystallin aggregate of several hundred nanometers disappeared
Rh ([3]; 4°): 12 nm
Rh ([3]; 22°): 13 nm
Rh ([3]; 37°): 13 nm
